Measured values from patent publication US8765447B2, “Fungal strain Beauveria sp. MTCC 5184 and a process for the preparation of enzymes therefrom” (Council of Scientific and Industrial Research, priority 2010, dated 2014).

What was measured:
Format in all cases: biochemical
[1] = system: purified protease of Beauveria sp MTCC 5184; experiment: Stability of purified protease in organic solvents at 50° C.; settings: 25% (v/v) solvent
Source text: Following organic solvents were used: acetone, 1-butanol, benzene, chloroform, dimethylsulphoxide, ethanol, hexane, isopropanol and methanol. […] Samples were removed at different time intervals and residual activity was estimated.

[2] = system: purified protease of Beauveria sp MTCC 5184; experiment: Effect of β-mercapto ethanol and Triton X-100 on protease activity; settings: 30 min
Source text: This example illustrates the effect of β-mercapto ethanol (BME) and Triton X-100 on protease activity of Beauveria sp MTCC 5184.

[3] = system: protease of Beauveria sp MTCC 5184; experiment: Effect of inhibitors on protease activity
Experimental: (§1) The protease activity has been expressed in terms of tyrosine equivalents. The reaction mixture contained an aliquot of suitably diluted enzyme solution and 10 mg Hammerstein casein in 0.1 M sodium carbonate buffer pH 9.0 in a total volume of 2 ml. After incubation at 50° C. for 10 min, the reaction was terminated by the addition of 3 ml of 5% trichloroacetic acid (acidified with concentrated hydrochloric acid). The precipitate formed was filtered through Whatman No. 1 filter paper after standing for 30 min at room temperature. The absorbance of trichloroacetic acid soluble fraction was measured at 280 nm. Micrograms of tyrosine produced was calculated from a pre-calibrated graph of absorbance at 280 nm against tyrosine concentration and the units are expressed as […] of tyrosine released per minute under assay conditions.
This example illustrates the effect of inhibitors on protease activity of Beauveria sp MTCC 5184. Following inhibitors were studied: phenylmethylsulfonyl fluoride (PMSF), ethylene-diaminetetraacetic acid (EDTA), iodoacetic acid, N-tosyl-L-phenylalanine chloromethyl ketone (TPCK), N-tosyl-L-lysine chloromethyl ketone (TLCK), Dimethylsulphoxide (DMSO) and Benzamidine. […] Protease without inhibitor served as control.

[4] = system: protease of Beauveria sp MTCC 5184; experiment: Effect of metal ions on protease activity; settings: for Residual Activity (%): 28° C., 30 min; for inhibition: 1 mM
Experimental: as §1
This example illustrates the effect of metal ions on protease activity of Beauveria sp MTCC 5184.

[5] = system: protease of Beauveria sp MTCC 5184; experiment: Modification of tryptophan of protease with NBS; settings: 28° C., 30 min
Experimental: This example illustrates the modification of tryptophan with N-bromosuccinimide (NBS) and its effect on protease activity. […] Protease incubated without NBS served as the control.

[6] = system: protease of Beauveria sp MTCC 5184; experiment: Substrate protection by casein against inhibition by PMSF, NBS and WRK
Source text: The example illustrates the study of substrate protection by casein on inhibition of Beauveria sp MTCC 5184 protease by PMSF, WRK and NBS. […] Increase in casein concentration decreased the inhibition by both the inhibitors indicating substrate protection by casein (Table 11). This indicates the presence of serine, aspartic acid and tryptophan at the active site of protease.

[7] = system: protease of Beauveria sp MTCC 5184; experiment: Modification of serine residue of protease by PMSF; settings: 28° C., 30 min
Experimental: This example illustrates the modification of serine residue of protease by PMSF and its effect on protease activity. […] Protease incubated without PMSF served as the control.

[8] = system: protease of Beauveria sp MTCC 5184; experiment: Modification of aspartic acid residue of protease by WRK; settings: 28° C., 30 min
Experimental: This example illustrates the modification of aspartic acid residue of protease by Woodward's reagent (WRK) and its effect on protease activity. […] Protease incubated without WRK served as the control.

[9] = inhibitor 5 mM, pre-incubated 1 h, pH 8.0

1-butanol
Residual Activity (%) ([1]; 0 h, pH 7): 100.00%
Residual Activity (%) ([1]; 1 h, pH 7): 82.07%
Residual Activity (%) ([1]; 2 h, pH 7): 46.38%

CC(C)=O [Acetone, acetone]
Residual Activity (%) ([1]; 0 h, pH 7): 100.00%
Residual Activity (%) ([1]; 1 h, pH 7): 99.07%
Residual Activity (%) ([1]; 2 h, pH 7): 70.45%
Residual Activity (%) ([1]; 2 h, pH 7, listed as acetone): around 70%

OCCS [BME, β-mercapto ethanol]
activity retained ([2]; 10% BME, 28° C.): retained full activity

N=C(N)c1ccccc1 [Benzamidine]
Inhibition (%) [3, 9]: 3.62%

c1ccccc1 [Benzene, benzene]
Residual Activity (%) ([1]; 0 h, pH 7): 100.00%
Residual Activity (%) ([1]; 1 h, pH 7): 61.85%
Residual Activity (%) ([1]; 2 h, pH 7): 40.66%

[Ca+2].[Cl-].[Cl-] [Ca^+2]
activation of protease activity ([4]; 1 mM and 10 mM): no activation
Residual Activity (%) ([4]; 1 mM chloride salt): 92.99%
Residual Activity (%) ([4]; 10 mM chloride salt): 81.75%

[Cd+2] [Cd^+2]
inhibition [4]: 3%
Residual Activity (%) ([4]; 1 mM chloride salt): 96.99%
Residual Activity (%) ([4]; 10 mM chloride salt): 63.50%

ClC(Cl)Cl [Chloroform, chloroform]
Residual Activity (%) ([1]; 0 h, pH 7): 100.00%
Residual Activity (%) ([1]; 1 h, pH 7): 77.14%
Residual Activity (%) ([1]; 2 h, pH 7): 38.55%

[Cl-].[Cl-].[Co+2] [Co^+2]
inhibitory effect on the protease ([4]; 1 mM and 10 mM): no inhibitory effect
Residual Activity (%) ([4]; 1 mM chloride salt): 103.86%
Residual Activity (%) ([4]; 10 mM chloride salt): 112.36%

[Cl][Cu][Cl] [Cu^+2]
inhibitory effect on the protease ([4]; 1 mM and 10 mM): no inhibitory effect
Residual Activity (%) ([4]; 1 mM chloride salt): 109.42%
Residual Activity (%) ([4]; 10 mM chloride salt): 100.02%

C[S+](C)[O-] [DMSO, Dimethylsulphoxide]
Inhibition (%) ([3]; inhibitor 10%, pre-incubated 1 h, pH 8.0): 0.04%
Residual Activity (%) ([1]; 0 h, pH 7): 100.00%
Residual Activity (%) ([1]; 1 h, pH 7): 87.52%

O=C(O)CN(CCN(CC(=O)O)CC(=O)O)CC(=O)O [EDTA, ethylene-diaminetetraacetic acid]
Inhibition (%) ([3]; inhibitor 20 mM, pre-incubated 1 h, pH 8.0): 1.51%

CCO [Ethanol, ethanol]
Residual Activity (%) ([1]; 0 h, pH 7): 100.00%
Residual Activity (%) ([1]; 1 h, pH 7): 98.50%
Residual Activity (%) ([1]; 2 h, pH 7): 45.21%

[Cl][Fe]([Cl])[Cl] [Fe^+3]
Residual Activity (%) ([4]; 1 mM chloride salt): 81.67%
Residual Activity (%) ([4]; 10 mM chloride salt): 82.66%

CCCCCC [Hexane, hexane]
Residual Activity (%) ([1]; 0 h, pH 7): 100.00%
Residual Activity (%) ([1]; 1 h, pH 7): 76.18%
Residual Activity (%) ([1]; 2 h, pH 7): 29.43%

[Hg+2] [Hg^+2]
inhibition [4]: 10%
Residual Activity (%) ([4]; 1 mM chloride salt): 90.38%
Residual Activity (%) ([4]; 10 mM chloride salt): 63.16%

O=C(O)CI [Iodoacetate, iodoacetic acid]
Inhibition (%) ([3]; pH 8): 0.30%

CC(C)O [Isopropanol, isopropanol]
Residual Activity (%) ([1]; 0 h, pH 7): 100.00%
Residual Activity (%) ([1]; 1 h, pH 7): 71.26%
Residual Activity (%) ([1]; 2 h, pH 7): 46.16%

[Cl-].[K+] [K^+1]
Residual Activity (%) ([4]; 1 mM chloride salt): 91.71%
Residual Activity (%) ([4]; 10 mM chloride salt): 87.63%

[Cl][Mn][Cl] [Mn^+2]
Residual Activity (%) ([4]; 1 mM chloride salt): 101.51%
Residual Activity (%) ([4]; 10 mM chloride salt): 73.98%

O=C1CCC(=O)N1Br [NBS, N-bromosuccinimide]
concentration at which complete inhibition was observed ([5]; 10 μM purified protease): 0.06 mM
Residual Activity (%) ([5]; NBS 0.01 mM): 20.39%
Residual Activity (%) ([5]; NBS 0.02 mM): 15.70%
Residual Activity (%) ([5]; NBS 0.03 mM): 12.55%
Residual Activity (%) ([5]; NBS 0.04 mM): 8.93%
Residual Activity (%) ([5]; NBS 0.05 mM): 7.08%
Residual Activity (%) ([5]; NBS 0.06 mM): 0%
Residual Activity (%) ([5]; NBS 0.07 mM): 0%
Residual Activity (%) ([5]; NBS 0.08 mM): 0%
Residual Activity (%) ([5]; NBS 0.09 mM): 0%
Residual Activity (%) ([5]; NBS 0.10 mM): 0%
Inhibition (%) ([6]; 0.01 mM NBS, casein 0 mg): 87.06%
Inhibition (%) ([6]; 0.01 mM NBS, casein 1 mg): 84.85%
Inhibition (%) ([6]; 0.01 mM NBS, casein 2 mg): 69.95%
Inhibition (%) ([6]; 0.01 mM NBS, casein 3 mg): 64.09%
Inhibition (%) ([6]; 0.01 mM NBS, casein 4 mg): 48.93%
Inhibition (%) ([6]; 0.01 mM NBS, casein 5 mg): 43.25%
Inhibition (%) ([6]; 0.01 mM NBS, casein 6 mg): 38.03%
Inhibition (%) ([6]; 0.01 mM NBS, casein 7 mg): 34.06%
Inhibition (%) ([6]; 0.01 mM NBS, casein 8 mg): 24.25%
Inhibition (%) ([6]; 0.01 mM NBS, casein 9 mg): 16.27%
Inhibition (%) ([6]; 0.01 mM NBS, casein 10 mg): 16.28%

[Cl-].[Na+] [Na^+1]
Residual Activity (%) ([4]; 1 mM chloride salt): 100.94%
Residual Activity (%) ([4]; 10 mM chloride salt): 99.01%

O=S(=O)(F)Cc1ccccc1 [PMSF, phenylmethylsulfonyl fluoride]
concentration at which complete inhibition was observed ([7]; 10 μM purified protease): 0.025 mM
Residual Activity (%) ([7]; PMSF 0.005 mM): 45.65%
Residual Activity (%) ([7]; PMSF 0.010 mM): 8.78%
Residual Activity (%) ([7]; PMSF 0.015 mM): 3.76%
Residual Activity (%) ([7]; PMSF 0.020 mM): 1.74%
Residual Activity (%) ([7]; PMSF 0.025 mM): 0%
Residual Activity (%) ([7]; PMSF 0.030 mM): 0%
Residual Activity (%) ([7]; PMSF 0.035 mM): 0%
Residual Activity (%) ([7]; PMSF 0.040 mM): 0%
Residual Activity (%) ([7]; PMSF 0.045 mM): 0%
Residual Activity (%) ([7]; PMSF 0.050 mM): 0%
Inhibition (%) ([6]; 0.01 mM PMSF, casein 0 mg): 95.02%
Inhibition (%) ([6]; 0.01 mM PMSF, casein 1 mg): 74.91%
Inhibition (%) ([6]; 0.01 mM PMSF, casein 2 mg): 70.78%
Inhibition (%) ([6]; 0.01 mM PMSF, casein 3 mg): 64.06%
Inhibition (%) ([6]; 0.01 mM PMSF, casein 4 mg): 60.71%
Inhibition (%) ([6]; 0.01 mM PMSF, casein 5 mg): 52.65%
Inhibition (%) ([6]; 0.01 mM PMSF, casein 6 mg): 45.22%
Inhibition (%) ([6]; 0.01 mM PMSF, casein 7 mg): 41.73%
Inhibition (%) ([6]; 0.01 mM PMSF, casein 8 mg): 34.80%
Inhibition (%) ([6]; 0.01 mM PMSF, casein 9 mg): 31.56%
Inhibition (%) ([6]; 0.01 mM PMSF, casein 10 mg): 26.26%

CC[n+]1ccc(-c2cccc(S(=O)(=O)[O-])c2)o1 [WRK, Woodward's reagent]
concentration at which complete inhibition was observed ([8]; 10 μM purified protease): 9 mM
Residual Activity (%) ([8]; WRK 1 mM): 86.08%
Residual Activity (%) ([8]; WRK 2 mM): 75.76%
Residual Activity (%) ([8]; WRK 3 mM): 61.47%
Residual Activity (%) ([8]; WRK 4 mM): 49.05%
Residual Activity (%) ([8]; WRK 5 mM): 34.66%
Residual Activity (%) ([8]; WRK 6 mM): 19.53%
Residual Activity (%) ([8]; WRK 7 mM): 11.69%
Residual Activity (%) ([8]; WRK 8 mM): 6.39%
Residual Activity (%) ([8]; WRK 9 mM): 0%
Residual Activity (%) ([8]; WRK 10 mM): 0%
Inhibition (%) ([6]; 5 mM WRK, casein 0 mg): 75.26%
Inhibition (%) ([6]; 5 mM WRK, casein 1 mg): 66.03%
Inhibition (%) ([6]; 5 mM WRK, casein 2 mg): 59.32%
Inhibition (%) ([6]; 5 mM WRK, casein 3 mg): 53.22%
Inhibition (%) ([6]; 5 mM WRK, casein 4 mg): 45.06%
Inhibition (%) ([6]; 5 mM WRK, casein 5 mg): 40.25%
Inhibition (%) ([6]; 5 mM WRK, casein 6 mg): 31.10%
Inhibition (%) ([6]; 5 mM WRK, casein 7 mg): 26.27%
Inhibition (%) ([6]; 5 mM WRK, casein 8 mg): 19.32%
Inhibition (%) ([6]; 5 mM WRK, casein 9 mg): 12.87%
Inhibition (%) ([6]; 5 mM WRK, casein 10 mg): 8.72%

N-tosyl-L-lysine chloromethyl ketone [TLCK]
Inhibition (%) [3, 9]: 12.12%

N-tosyl-L-phenylalanine chloromethyl ketone [TPCK]
Inhibition (%) [3, 9]: 7.33%

Triton X-100
activity retained ([2]; 2% Triton X-100, 28° C.): 80%
